Common to all, as to assay type: cell-based, human
One assay relates to T-C7 T-cell line. Put plainly: Detection of cytokines, T-cell line generated with native C7. Particulars: 24 hours with peptide-pulsed B-cells. As to the method: (§1) Cells were restimulated every 7 days.
(§2) Detection of cytokines—Autologous B cells pulsed with peptides at different concentrations (25, 12.5, 6.25 and 3, 13, and 1.56 μg/ml) were incubated with MUC1-specific T-cell lines at a 2:1 ratio for 24 hours. The supernatants were analyzed for IFN-γ by ELISA (Invitrogen, Frederick, Md.).
(§3) Each cell line was then stimulated for 24 hours with B-cells pulsed with either the native C7 or agonist C7A peptide, and cytokine levels in the supernatant were analyzed.

Assay [1] deals with PBMCs from vaccinated cancer patients. The assay is described as follows: Establishment of T-cell lines with peptide-pulsed APCs. An excerpt:
Patients-PBMCs were used from two patients with prostate cancer enrolled in a previously described clinical trial of PSA-TRICOM vaccine in combination with […] al., Lancet Oncol., 13: 501-8 (2012)). An institutional review board of the National Institutes of Health (NIH) Clinical Center had approved the procedures, and informed consent was obtained in accordance with the Declaration of Helsinki. […] Cells were restimulated every 7 days.

The subject of another assay is T-C7A T-cell line. The assay is described as follows: Detection of cytokines, T-cell line generated with agonist C7A. Particulars: 24 hours with peptide-pulsed B-cells. As to the method:
as §1, §2, §3

The subject of the next assay is T-C6A T-cell line. The assay is described as follows: Detection of cytokines, T-cell line generated with C6A. As to the method:
as §1
Detection of cytokines—Autologous B cells pulsed with peptides at different concentrations (25, 12.5, 6.25 and 3, 13, and 1.56 μg/ml) were incubated with MUC1-specific T-cell lines at a 2:1 ratio for 24 hours.

Setting [2] is: T-cell line T-C6A stimulated with peptide.
[3] abbreviates: stimulation of the T-cell line generated with C6A.

In the assay with T-C7 T-cell line, KYTNPAVAL [Peptide C7A] showed a GM-CSF of 300 pg/mL/2.5 × 10^5 T cells, an IFN-γ of 1279 pg/mL/2.5 × 10^5 T cells, an IL-2 of less than 2.4 pg/mL/2.5 × 10^5 T cells and an IL-6 of 7.7 pg/mL/2.5 × 10^5 T cells. For the same sequence, in the assay with T-C7 T-cell line, the IL-8 is listed as 7.3 pg/mL/2.5 × 10^5 T cells, the IL-10 amounted to 45 pg/mL/2.5 × 10^5 T cells and the TNFα is on record as 30 pg/mL/2.5 × 10^5 T cells. For the same sequence, the “generation of T-cell lines using APCs pulsed with the peptide” value (“generation of T-cell lines” below) in assay [1] is on record as “could be generated”. For the same sequence, in the assay on T-C7A T-cell line, the GM-CSF was 910 pg/mL/2.5 × 10^5 T cells, the IFN-γ was 2000 pg/mL/2.5 × 10^5 T cells, the IL-2 is recorded as less than 2.4 pg/mL/2.5 × 10^5 T cells and the IL-6 is 40 pg/mL/2.5 × 10^5 T cells. In the assay on T-C7A T-cell line, this sequence showed an IL-8 of 360 pg/mL/2.5 × 10^5 T cells, an IL-10 of 375 pg/mL/2.5 × 10^5 T cells and a TNFα of 70 pg/mL/2.5 × 10^5 T cells.
Regarding KYHPMSEYAL [Peptide C6A], the “generation of T-cell lines” value in assay [1] was “could be generated”. In the assay on T-C6A T-cell line (setting [2]), this sequence displayed a GM-CSF of 1277 pg/mL/2.5 × 10^5 T cells, an IFN-γ of 3060 pg/mL/2.5 × 10^5 T cells, an IL-2 of 3630 pg/mL/2.5 × 10^5 T cells and an IL-6 of 7.6 pg/mL/2.5 × 10^5 T cells. In the assay on T-C6A T-cell line (setting [2]), this sequence returned an IL-8 of 11.8 pg/mL/2.5 × 10^5 T cells, an IL-10 of 16.4 pg/mL/2.5 × 10^5 T cells and a TNFα of 1021 pg/mL/2.5 × 10^5 T cells. Besides, in the assay with T-C6A T-cell line (setting [3]), the GM-CSF level was > 10,000 pg/mL/10^5 cells, the IFN-γ level was 2,651 pg/mL/10^5 cells, the IL-2 level is on record as less than 50 pg/mL/10^5 cells and the IL-6 level was less than 50 pg/mL/10^5 cells. In the assay with T-C6A T-cell line (setting [3]), the IL-8 level is > 10,000 pg/mL/10^5 cells, the IL-10 level is less than 50 pg/mL/10^5 cells, the IL-12 level is on record as less than 50 pg/mL/10^5 cells and the TNF-α level worked out at 372 pg/mL/10^5 cells.
Turning to “TYHPMSEYPT [Peptide C6, native MUC1-C HLA-A24 peptide, position 462-471, reference compound]”, the “generation of T-cell lines” value in assay [1] is “unsuccessful”.
In the assay with T-C7 T-cell line, “SYTNPAVAA [Peptide C7, native MUC1-C HLA-A24 peptide, position 502-510, reference compound]” came in with a GM-CSF of 237 pg/mL/2.5 × 10^5 T cells, an IFN-γ of 750 pg/mL/2.5 × 10^5 T cells, an IL-2 of less than 2.4 pg/mL/2.5 × 10^5 T cells and an IL-6 of 6.4 pg/mL/2.5 × 10^5 T cells. Further, in the assay on T-C7 T-cell line, the IL-8 worked out at 6.8 pg/mL/2.5 × 10^5 T cells, the IL-10 is reported as 25 pg/mL/2.5 × 10^5 T cells and the TNFα came to 21 pg/mL/2.5 × 10^5 T cells. Moreover, in assay [1], the “generation of T-cell lines” value is on record as “could be generated”. In addition, in the assay with T-C7A T-cell line, the GM-CSF is 215 pg/mL/2.5 × 10^5 T cells, the IFN-γ is on record as 680 pg/mL/2.5 × 10^5 T cells, the IL-2 is reported as less than 2.4 pg/mL/2.5 × 10^5 T cells and the IL-6 is on record as less than 2.4 pg/mL/2.5 × 10^5 T cells. In the assay with T-C7A T-cell line, this sequence showed an IL-8 of 112 pg/mL/2.5 × 10^5 T cells, an IL-10 of 92 pg/mL/2.5 × 10^5 T cells and a TNFα of 30 pg/mL/2.5 × 10^5 T cells.

The values above are taken from US11732017B2, “HLA-A24 agonist epitopes of MUC1-C oncoprotein and compositions and methods of use” (The USA, as represented by the Secretary, Dept. of Health …, priority 2013, dated 2023).
